# From ChEMBL document CHEMBL1152149 (Bioorg Med Chem Lett, 2008)
# pEC50: −log10 of the molar value. Counter-ions that a name gives are not always drawn.
# Test system: Influenza A virus
# Assay: microbe, parasite or virus in culture
# Details: MDCK
row,Structure (SMILES),pEC50
1,CC1(N)C2CC3CC(C2)CC1C3 (stereo unspecified),> 5.70
2,CCCC1(N)C2CC3CC(C2)CC1C3 (stereo unspecified),> 5.77
3,C1CNC2(C1)C1CC3CC(C1)CC2C3 (stereo unspecified),5.74
4,CC1(O)C2CC3CC(C2)CC1C3 (stereo unspecified),4.97
5,CCC1(N)C2CC3CC(C2)CC1C3 (stereo unspecified),> 5.72
6,NC12CC3CC(CC(C3)C1)C2 [AMANTADINE HYDROCHLORIDE],> 6.05
